According to the NIST ThermoML archive (doi:10.1021/acs.jced.8b00487):
“And” between values parts separate entries of the source, which are not always exact repeats. Equal values may be shown once. Numbers after ± are expanded uncertainties.

Key:
[1] = 298.15 K; 101.33 kPa; Liquid; Vibrating tube method
[2] = xn = mol fraction of the nth substance listed; conditions: 298.15 K, 101 kPa, Liquid, Vibrating tube method

`Cc1ccccc1C` [1,2-dimethylbenzene] gave a mass density [1] of 875.6 ± 0.5 kg/m3.
`CCCCC(CC)COP(=O)(O)OCC(CC)CCCC` (stereo not drawn) [bis(2-ethylhexyl) hydrogen phosphate] + CCCCC(CC)COP(=O)([O-])OCC(CC)CCCC.CCCCC(CC)COP(=O)([O-])OCC(CC)CCCC.CCCCC(CC)COP(=O)([O-])OCC(CC)CCCC.[Dy+3] showed a mass density ([2]; x2 = 0) of 971 ± 2 kg/m3.
For `CCCCC(CC)COP(=O)(O)OCC(CC)CCCC` (stereo not drawn) [bis(2-ethylhexyl) hydrogen phosphate] + CCCCC(CC)COP(=O)([O-])OCC(CC)CCCC.CCCCC(CC)COP(=O)([O-])OCC(CC)CCCC.CCCCC(CC)COP(=O)([O-])OCC(CC)CCCC.[Eu+3], the mass density ([2]; x2 = 0) was 970.5 ± 2 kg/m3.
With `CCCCC(CC)COP(=O)(O)OCC(CC)CCCC` (stereo not drawn) [bis(2-ethylhexyl) hydrogen phosphate] + CCCCC(CC)COP(=O)([O-])OCC(CC)CCCC.CCCCC(CC)COP(=O)([O-])OCC(CC)CCCC.CCCCC(CC)COP(=O)([O-])OCC(CC)CCCC.[Gd+3] the mass density ([2]; x2 = 0) was 970.5 ± 2 kg/m3.
For `CCCCC(CC)COP(=O)(O)OCC(CC)CCCC` (stereo not drawn) [bis(2-ethylhexyl) hydrogen phosphate] + CCCCC(CC)COP(=O)([O-])OCC(CC)CCCC.CCCCC(CC)COP(=O)([O-])OCC(CC)CCCC.CCCCC(CC)COP(=O)([O-])OCC(CC)CCCC.[Nd+3], the mass density ([2]; x2 = 0) was 971 ± 2 kg/m3 and 969.1 ± 2 kg/m3 and 970.5 ± 2 kg/m3.
For `CCCCC(CC)COP(=O)(O)OCC(CC)CCCC` (stereo not drawn) [bis(2-ethylhexyl) hydrogen phosphate] + CCCCC(CC)COP(=O)([O-])OCC(CC)CCCC.CCCCC(CC)COP(=O)([O-])OCC(CC)CCCC.CCCCC(CC)COP(=O)([O-])OCC(CC)CCCC.[Sm+3], the mass density ([2]; x2 = 0) was 971 ± 2 kg/m3 and 970.5 ± 2 kg/m3.
Compound `CCCCC(CC)COP(=O)(O)OCC(CC)CCCC` (stereo not drawn) [bis(2-ethylhexyl) hydrogen phosphate] + CCCCC(CC)COP(=O)([O-])OCC(CC)CCCC.CCCCC(CC)COP(=O)([O-])OCC(CC)CCCC.CCCCC(CC)COP(=O)([O-])OCC(CC)CCCC.[Tb+3] has a mass density ([2]; x2 = 0) of 970.5 ± 2 kg/m3.
In the case of `CCCCC(CC)COP(=O)(O)OCC(CC)CCCC` (stereo not drawn) [bis(2-ethylhexyl) hydrogen phosphate] + Cc1ccccc1C, the mass density ([2]; x2 = 0.5002) is reported as 946.2 ± 4 kg/m3 and 946.1 ± 4 kg/m3, the mass density ([2]; x2 = 0.5198) is reported as 944.7 ± 4 kg/m3 and the mass density ([2]; x2 = 0.5201) is reported as 944.6 ± 4 kg/m3. For the same compound, the mass density ([2]; x2 = 0.7313) was 924.4 ± 4 kg/m3, the mass density ([2]; x2 = 0.8195) was 912.6 ± 4 kg/m3 and 912.4 ± 4 kg/m3 and the mass density ([2]; x2 = 0.8197) was 912.5 ± 4 kg/m3. For the same compound, the mass density ([2]; x2 = 0.8203) was 912.4 ± 4 kg/m3, the mass density ([2]; x2 = 0.8204) was 912.2 ± 4 kg/m3 and the mass density ([2]; x2 = 0.9275) was 893.2 ± 4 kg/m3 and 892.9 ± 4 kg/m3. The mass density ([2]; x2 = 0.9406) was 890.1 ± 4 kg/m3 and 890.3 ± 4 kg/m3 and 890 ± 4 kg/m3, the mass density ([2]; x2 = 0.9759) was 882 ± 4 kg/m3 and the mass density ([2]; x2 = 0.976) was 882 ± 4 kg/m3 and 881.9 ± 4 kg/m3 and 881.8 ± 4 kg/m3.
For `CCCCC(CC)COP(=O)([O-])OCC(CC)CCCC.CCCCC(CC)COP(=O)([O-])OCC(CC)CCCC.CCCCC(CC)COP(=O)([O-])OCC(CC)CCCC.[Dy+3]` (stereo not drawn) [dysprosium(III) bis(2-ethylhexyl) phosphate] + CCCCC(CC)COP(=O)(O)OCC(CC)CCCC, the mass density ([2]; x1 = 0.0039) was 973.1 ± 2 kg/m3, the mass density ([2]; x1 = 0.00883) was 975.7 ± 2 kg/m3 and the mass density ([2]; x1 = 0.02055) was 981.6 ± 2 kg/m3. It also gave a mass density ([2]; x1 = 0.03494) of 988.7 ± 2 kg/m3 and a mass density ([2]; x1 = 0.04879) of 995.1 ± 2 kg/m3.
Compound `CCCCC(CC)COP(=O)([O-])OCC(CC)CCCC.CCCCC(CC)COP(=O)([O-])OCC(CC)CCCC.CCCCC(CC)COP(=O)([O-])OCC(CC)CCCC.[Eu+3]` (stereo not drawn) [europium(III) bis(2-ethylhexyl) phosphate] + CCCCC(CC)COP(=O)(O)OCC(CC)CCCC has a mass density ([2]; x1 = 0.01457) of 977.5 ± 2 kg/m3, a mass density ([2]; x1 = 0.03221) of 985.6 ± 2 kg/m3 and a mass density ([2]; x1 = 0.04158) of 989.9 ± 2 kg/m3. The mass density ([2]; x1 = 0.05518) was 995.6 ± 2 kg/m3 and the mass density ([2]; x1 = 0.07111) was 1001.7 ± 2 kg/m3.
Compound `CCCCC(CC)COP(=O)([O-])OCC(CC)CCCC.CCCCC(CC)COP(=O)([O-])OCC(CC)CCCC.CCCCC(CC)COP(=O)([O-])OCC(CC)CCCC.[Gd+3]` (stereo not drawn) [gadolinium(III) bis(2-ethylhexyl) phosphate] + CCCCC(CC)COP(=O)(O)OCC(CC)CCCC has a mass density ([2]; x1 = 0.01568) of 978.4 ± 2 kg/m3, a mass density ([2]; x1 = 0.0349) of 987.4 ± 2 kg/m3 and a mass density ([2]; x1 = 0.04335) of 991.2 ± 2 kg/m3. It also gave a mass density ([2]; x1 = 0.05925) of 997.8 ± 2 kg/m3.
